{"source": "patent US20080305100A1", "about": "“Activated Protein C Inhibits Undesirable Effects of Plasminogen Activator in the Brain” (priority 2004, published 2008)", "key": {"[1]": {"test_system": "AIF", "test": "Western blot of AIF in nuclear extracts of NMDA/tPA treated neurons", "assay_type": "cell-based, mouse", "conditions": "for AIF nuclear translocation in the presence of tPA (NMDA/tPA injury): effect of APC or caspase inhibitor", "procedure": "(§1) Primary neuronal cultures were prepared from fetal C57BU6J mice as we have previously described^23. Cultures were maintained in serum-free NEUROBASAL medium plus B27 supplement (Gibco BRL, Rockville, Md.) in a humidified 5% CO2 incubator at 37° C. for 14 days before 3 hr to 24 hr treatment with tPA (20 μg/ml) alone, NMDA (25 μM)/5 μM glycine, or tPA plus NMDA. Ac-DEVD-CHO (50 μM), z-IETD-fmk (20 μM), or z-LEHD-fmk (5 μM) was applied 3 hr prior to tPA/NMDA treatment. Mouse recombinant APC (20 nM) was added 30 min before tPA/NMDA treatment.\n(§2) Whole cellular extracts, nuclear proteins, or cell membrane fractions were prepared as we have previously described^23. The relative abundance of each protein was determined by scanning densitometry using β-actin as an internal control. Data from multiple Western blots (n=3-5) were averaged for statistical analysis."}, "[2]": {"test_system": "caspase-3", "test": "Caspase-3 activity in BEC lysate", "assay_type": "cell-based, human", "conditions": "for inhibition in caspase-3 activation in hypoxic BEC: absence of tPA; for inhibition in caspase-3 activation in hypoxic BEC / inhibition of caspase-3 activation in hypoxic BEC: z-IETD-fmk 10 μM, z-LEHD-fmk 15 μM applied 2 hr prior; for inhibition of caspase-3 activation in hypoxic BEC: presence of tPA; for increase in caspase-3 activity compared to hypoxia alone: tPA plus hypoxia", "procedure": "(§3) Primary human BEC were isolated from rapid autopsies from neurologically normal young individuals after trauma and cultured as we have previously described^20. Cells were maintained in serum-free Dulbeco's Modified Eagle Medium and exposed for 1 hr to 16 hr to tPA (20 μg/ml) under normoxic conditions (20% oxygen, 5 mM glucose), hypoxia (<2% oxygen, no glucose), or to tPA plus hypoxia. Hypoxia was induced using an anaerobic chamber (Form a Scientific, Holbrook, N.Y.)^20. The levels of O2 were monitored by O2 Fyrite (Form a Scientific). z-IETD-fmk (10 μM) or z-LEHD-fmk (15 μM) was applied 2 hr prior to tPA/hypoxia treatment. Human APC (10 nM to 600 nM) was added at the time of tPA/hypoxia treatment. Caspase-3, -8 or -9 activity was determined in the presence of 400 nM APC.\n(§4) BEC or cortical neuron lysate was incubated at 37° C. with caspase-3 (DEVD-pNA), caspase-8 (IETD-pNA) (ApoAlert caspase assay kit; Clontech, Palo Alto, Calif.), or caspase-9 (Ac-LEHD-pNA; Chemicon; Temecula, Calif.) substrate. Substrate hydrolysis was determined as absorbance change at 405 nm in a microplate reader^23. Enzymatic activity was expressed in arbitrary units per mg of protein."}, "[3]": {"test_system": "caspase-8", "test": "Caspase-8 activity in cortical neuron lysate", "assay_type": "cell-based, mouse", "conditions": "for tPA-induced increase in caspase-8 activation: tPA/NMDA treated neurons, APC 20 nM, z-IETD-fmk 20 μM, z-LEHD-fmk 5 μM", "procedure": "as §1, §4"}, "[4]": {"test_system": "caspase-3", "test": "Caspase-3 activity in cortical neuron lysate", "assay_type": "cell-based, mouse", "procedure": "as §1, §4"}, "[5]": {"test_system": "human BEC", "test": "tPA/hypoxia in human BEC: apoptosis (TUNEL)", "assay_type": "cell-based", "procedure": "as §3\n(§5) Cell injury in BEC was detected by the release of LDH (LDH assay, Sigma). The Hoechst dye (Hoechst 33,342, Sigma) and in situ terminal deoxynucleotidyl transferase-mediated digoxigenin-dUTP nick-end labeling (TUNEL) (Phoenix Flow Systems, San Diego, Calif.) assays were performed on acetone-fixed BEC or paraformaldexyde-fixed neurons. Images were visualized using a Nikon TE2000-U microscope."}, "[6]": {"test_system": "mouse cortical neurons", "test": "tPA/NMDA-induced apoptosis in neurons", "assay_type": "cell-based", "procedure": "as §1, §5"}, "[7]": {"test_system": "human BEC", "test": "tPA/hypoxia in human BEC: cell injury by LDH release", "assay_type": "cell-based", "conditions": "for LDH release into the medium from ischemic BEC: tPA 20 μg/ml plus hypoxia/aglycemia", "procedure": "as §3, §5"}, "[8]": {"test_system": "caspase-9", "test": "Caspase-9 activity in BEC lysate", "assay_type": "cell-based, human", "conditions": "tPA 20 μg/ml plus hypoxia", "procedure": "as §3, §4"}, "[9]": {"test_system": "caspase-8", "test": "Caspase-8 activity in BEC lysate", "assay_type": "cell-based, human", "conditions": "tPA plus hypoxia, at 1 hr; remained elevated over 16 hr vs hypoxia alone", "procedure": "as §3, §4"}, "[10]": {"test_system": "caspase-9", "test": "Caspase-9 activity in cortical neuron lysate", "assay_type": "cell-based, mouse", "procedure": "as §1, §4"}, "[11]": {"target": "T1, NR1 or the NR2A subunit of the NMDA receptor (Mus musculus, UniProt P35436+P35438)", "T1 construct": "Western blot analysis of NR1 and NR2A subunits in membrane fractions 24 h after treatment with tPA; endogenous in cells; host or cells: primary cortical neurons from fetal C57BL/6J mice", "test": "Western blot of NR1 and NR2A subunits in membrane fractions after tPA", "assay_type": "cell-based", "conditions": "24 h after treatment with tPA", "procedure": "as §1, §2"}, "[12]": {"test_system": "p53, Bax, Bcl-2", "test": "Western blot of p53, Bcl-2 and Bax in NMDA-treated neurons", "assay_type": "cell-based, mouse", "conditions": "tPA plus NMDA vs NMDA", "procedure": "as §1, §2"}, "[13]": {"test_system": "mouse stroke model", "test": "In vivo stroke model (45 min MCA occlusion/24 hr reperfusion)", "conditions": "tPA 10 mg/kg iv", "procedure": "Protocols were approved by the Animal Care Committee at the University of Rochester using National Institutes of Health guidelines. Vehicle, tPA (10 mg/kg, 10% bolus/90% infusion), or tPA plus mouse recombinant APC (0.02 mg/kg to 1 mg/kg, 50% bolus/50% infusion) were administered via the femoral vein using separate intravenous lines and our previously described mouse stroke model^19,20 modified to 45 min MCA occlusion/24 hr reperfusion. tPA was infused during the last 10 min of MCA occlusion and for 20 min into reperfusion. APC was infused either simultaneously with tPA, after tPA infusion, or before tPA infusion. The dose of tPA used here has been frequently used in rodents and is considered to be equivalent to the therapeutic dose in humans^12,13,44,50. CBF was monitored by laser Doppler flowmetry (Transonic Systems)^19. Arterial blood gasses were measured^19. Neurological examinations were performed at 24 hr and scored: no neurological deficit (O), failure to extend left forepaw fully (1), turning to left (2), circling to left (3), unable to walk spontaneously (4), or stroke-related death (5). Neuropathological analysis was performed at 24 hr. Unfixed 1-mm coronal brain slices at the level of optic chiasm were incubated in 2% triphenyltetrazolium chloride in phosphate buffer (pH 7.4). Brain injury, infarct, and edema volumes were determined as previously described^19,20. Fibrin deposition was quantified by Western blotting with anti-fibrin II antibody (1:500, NYB-T2G1; Accurate Chemical Scientific Corp.)^19,20,30 and leukocytes were stained with CD11b antibody (1:250, DAKO Corp.)^19,20. Hemoglobin was determined by a spectrophotometric assay using Drabkin's reagent (Sigma) as we have previously described^19."}, "[14]": {"test_system": "MMP-9", "test": "MMP gelatin zymography of BEC conditioned medium", "assay_type": "cell-based, human", "conditions": "tPA 20 μg/ml, hypoxic BEC, 4 hr", "procedure": "The conditioned medium from BEC exposed to tPA (20 μg/ml) or hypoxia for 4 hr, in the absence or presence of human APC (50 nM to 1,000 nM), was analyzed by gelatin zymography as previously described^11. […] MMP-9 activity was quantified as fold increase compared with normoxic controls."}}, "data": [{"substance": "Ac-DEVD-CHO", "values": [{"measurement": "AIF nuclear translocation in the presence of tPA (NMDA/tPA injury)", "setting": "[1]", "value": "blocked"}]}, {"substance": "z-LEHD-fmk", "values": [{"measurement": "inhibition in caspase-3 activation in hypoxic BEC", "setting": "[2]", "value": "greater than 85%"}, {"measurement": "inhibition of caspase-3 activation in hypoxic BEC", "setting": "[2]", "value": "only slightly inhibited"}, {"measurement": "tPA-induced increase in caspase-8 activation", "setting": "[3]", "value": "without effect"}, {"measurement": "reduction of caspase-3 activation in cells treated with NMDA alone", "setting": "[4]; NMDA alone, no tPA, z-LEHD-fmk 5 μM", "value": "greater than 80%"}, {"measurement": "AIF nuclear translocation in the presence of tPA (NMDA/tPA injury)", "setting": "[1]", "value": "much less effective"}]}, {"substance": "z-IETD-fmk", "values": [{"measurement": "tPA-induced apoptosis in ischemic BEC", "setting": "[5]; discussion summary", "value": "abolished"}, {"measurement": "inhibition in caspase-3 activation in hypoxic BEC", "setting": "[2]", "value": "less than 15%"}, {"measurement": "inhibition of caspase-3 activation in hypoxic BEC", "setting": "[2]", "value": "greater than 95%"}, {"measurement": "tPA-induced apoptosis in NMDA-treated neurons", "setting": "[6]; discussion summary", "value": "abolished"}, {"measurement": "tPA-induced increase in caspase-8 activation", "setting": "[3]", "value": "abolished"}, {"measurement": "AIF nuclear translocation in the presence of tPA (NMDA/tPA injury)", "setting": "[1]", "value": "blocked"}]}, {"substance": "tPA: Human recombinant tPA (alteplase, Genentech); in some in vitro studies human recombinant tPA from Sigma", "values": [{"measurement": "LDH release into the medium from ischemic BEC", "setting": "[7]; 2 hr, background values in the absence of tPA", "value": 50, "unit": "%"}, {"measurement": "LDH release into the medium from ischemic BEC", "setting": "[7]; 4 hr, 57% in the absence of tPA", "value": 95, "unit": "%"}, {"measurement": "LDH release from normoxic BEC", "setting": "[7]; tPA alone, normoxia", "value": "did not affect"}, {"measurement": "number of TUNEL-positive hypoxic BEC", "setting": "[5]; tPA plus hypoxia, 4 hr, 60% for hypoxia alone", "value": 100, "unit": "%"}, {"measurement": "caspase-9 activity in hypoxic BEC relative to hypoxia alone", "setting": "[8]", "value": "did not produce a significant increase"}, {"measurement": "activation of caspase-8 in ischemic BEC", "setting": "[9]", "value": "early and sharp increase"}, {"measurement": "increase in caspase-3 activity compared to hypoxia alone", "setting": "[2]; at 4 hr", "value": 2.8, "unit": "fold"}, {"measurement": "increase in caspase-3 activity compared to hypoxia alone", "setting": "[2]; within 16 hr", "value": "> 3.0", "unit": "fold"}, {"measurement": "number of apoptotic neurons", "setting": "[6]; tPA 20 μg/ml, 24 hr after exposure to NMDA, vs NMDA alone", "value": "doubles"}, {"measurement": "effect on neuronal cells", "setting": "[6]; tPA alone, no NMDA", "value": "did not affect"}, {"measurement": "caspase-9 activation, tPA/NMDA compared to NMDA alone", "setting": "[10]; tPA 20 μg/ml plus NMDA 25 μM", "value": "did not alter"}, {"measurement": "activation of caspase-9", "setting": "[10]; tPA alone, no NMDA", "value": "did not affect"}, {"measurement": "caspase-8 in neurons, tPA/NMDA compared to NMDA alone", "setting": "[3]; tPA 20 μg/ml plus NMDA 25 μM", "value": "robust activation"}, {"measurement": "activation of caspase-8", "setting": "[3]; tPA alone, no NMDA", "value": "did not affect"}, {"measurement": "caspase-3 activation relative to NMDA alone", "setting": "[4]; tPA 20 μg/ml plus NMDA 25 μM", "value": "increased"}, {"measurement": "activation of caspase-3", "setting": "[4]; tPA alone, no NMDA", "value": "did not affect"}, {"measurement": "increase of nuclear translocation of AIF in the presence of NMDA", "setting": "[1]; tPA plus NMDA vs NMDA", "value": 50, "unit": "%"}, {"measurement": "proteolytic effect on the NMDA receptor (NR1, NR2A subunit)", "setting": "[11]", "value": "failed to cleave"}, {"measurement": "NMDA-mediated increases in p53 and Bax expression, decrease in Bcl-2 expression", "setting": "[12]", "value": "did not affect"}, {"measurement": "improvement of post-ischemic cerebral blood flow (CBF) vs vehicle", "setting": "[13]", "value": 35, "unit": "%"}, {"measurement": "increase in the level of hemoglobin in the ischemic hemisphere", "setting": "[13]", "value": "greater than 3.0 fold"}, {"measurement": "ischemic brain fibrin deposition", "setting": "[13]", "value": "background level"}, {"measurement": "increase of volume of edema compared to controls", "setting": "[13]; 24 hr reperfusion", "value": 155, "unit": "%"}, {"measurement": "increase of volume of infarction compared to controls", "setting": "[13]; 24 hr reperfusion", "value": 75, "unit": "%"}, {"measurement": "volume of cerebral injury compared to controls", "setting": "[13]; 24 hr reperfusion", "value": "almost doubled"}, {"measurement": "motor neurological score", "setting": "[13]; 24 hr, controls 2.3, scale 0-5", "value": 3.5}, {"measurement": "increase of brain accumulation of leukocytes", "setting": "[13]; CD11b-positive leukocytes", "value": "about 65%"}, {"measurement": "mice with substantial hemorrhage", "setting": "[13]; MCA stroke model", "value": "6/6"}, {"measurement": "potentiation of hypoxia-induced MMP-9 activation", "setting": "[14]", "value": "about 2.0 fold"}]}]}
